Test results as given in paper PMC11311821, “Biochemical Characterisation of Sis: A Distinct Thermophilic PETase with Enhanced NanoPET Substrate Hydrolysis and Thermal Stability” (International Journal of Molecular Sciences, 2024).

System: Sis
Experiment: spectrophotometric p-nitrophenol release at […] nm
Format: biochemical, metagenome: geothermal site (36 °C, pH 9.8)
Conditions: optimal conditions of pH and temperature (sodium-phosphate pH 7.0, 70 °C)

## CCCC(=O)Oc1ccc([N+](=O)[O-])cc1 [pNP-butyrate]
  Km: 80 ± 10 µM
